Columns and labels:
[1] = human gut metagenome, 24 h, 2 µM
[2] = human gut metagenome, 24 h, 2 µM; remark: listed apart in the source
[3] = human gut metagenome, 24 h, 2 µM; remark: listed apart in the source
[4] = (§1) The drug is tested on Z-018 corresponding to pig gut metagenome with ENA study accession number: PRJEB37062 and ENA sample accession number: ERS12561817 for biotransformation under anaerobic condition. The drug concentrations were measured over 9 timepoints collected between 0 and 24 hours of incubation by liquid-chromatography-coupled mass spectrometry (LC–MS); details: 2 µM
[5] = as §1, with “Z-008” for “Z-018”, “to” for “to pig gut”, “ERS12561808” for “ERS12561817”; details: 2 µM
[6] = as §1, with “WLS-098” for “Z-018”, “human” for “pig”, “ERS12561754” for “ERS12561817”; details: 2 µM
[7] = as §1, with “Z-006” for “Z-018”, “mouse” for “pig”, “ERS12561806” for “ERS12561817”; details: 2 µM
[8] = as §1, with “Z-021” for “Z-018”, “to” for “to pig gut”, “ERS12561820” for “ERS12561817”; details: 2 µM
[9] = human gut metagenome, 24 h, 2 µM; remark: listed apart in the source
[10] = human gut metagenome, 24 h, 2 µM; remark: listed apart in the source
[11] = as §1, with “WLS-007” for “Z-018”, “human” for “pig”, “ERS12561742” for “ERS12561817”; details: 2 µM
[12] = as §1, with “WLS-077” for “Z-018”, “human” for “pig”, “ERS12561750” for “ERS12561817”; details: 2 µM
[13] = as §1, with “Z-012” for “Z-018”, “to” for “to pig gut”, “ERS12561812” for “ERS12561817”; details: 2 µM
[14] = human gut metagenome, 24 h, 2 µM; remark: listed apart in the source
[15] = human gut metagenome, 24 h, 2 µM; remark: listed apart in the source
[16] = as §1, with “Z-017” for “Z-018”, “mouse” for “pig”, “ERS12561816” for “ERS12561817”; details: 2 µM
[17] = as §1, with “Z-025” for “Z-018”, “rabbit” for “pig”, “ERS12561824” for “ERS12561817”; details: 2 µM
[18] = human gut metagenome, 24 h, 2 µM; remark: listed apart in the source
[19] = as §1, with “Z-013” for “Z-018”, “rabbit” for “pig”, “ERS12561813” for “ERS12561817”; details: 2 µM
[20] = human gut metagenome, 24 h, 2 µM; remark: listed apart in the source
Further: call rule not given here.

Row | SMILES | Bacterial Biotransformation [1] | Bacterial Biotransformation [2] | Bacterial Biotransformation [3] | Bacterial Biotransformation [4] | Bacterial Biotransformation [5] | Bacterial Biotransformation [6] | Bacterial Biotransformation [7] | Bacterial Biotransformation [8] | Bacterial Biotransformation [9] | Bacterial Biotransformation [10] | Bacterial Biotransformation [11] | Bacterial Biotransformation [12] | Bacterial Biotransformation [13] | Bacterial Biotransformation [14] | Bacterial Biotransformation [15] | Bacterial Biotransformation [16] | Bacterial Biotransformation [17] | Bacterial Biotransformation [18] | Bacterial Biotransformation [19] | Bacterial Biotransformation [20]
1 | CC(C)NCC(O)c1ccc(NS(C)(=O)=O)cc1 (stereo not given) [SOTALOL] | Compound NOT metabolized | Compound NOT metabolized | Compound NOT metabolized | Compound NOT metabolized | Compound NOT metabolized | Compound NOT metabolized | Compound NOT metabolized | Compound NOT metabolized | Compound NOT metabolized | Compound NOT metabolized | Compound NOT metabolized | Compound NOT metabolized | Compound NOT metabolized | Compound NOT metabolized | Compound NOT metabolized | Compound NOT metabolized | Compound NOT metabolized | Compound NOT metabolized | Compound NOT metabolized | Compound NOT metabolized
2 | CC(=O)OCC(=O)[C@@]1(O)[C@@H](C)C[C@H]2[C@@H]3CCC4=CC(=O)C=C[C@]4(C)[C@@]3(F)[C@@H](O)C[C@@]21C [BETAMETHASONE ACETATE] | Compound metabolized | Compound metabolized | Compound metabolized | Compound NOT metabolized | Compound NOT metabolized | Compound metabolized | Compound metabolized | Compound metabolized | Compound metabolized | Compound metabolized | Compound metabolized | Compound NOT metabolized | Compound NOT metabolized | Compound metabolized | Compound metabolized | Compound metabolized | Compound metabolized | Compound metabolized | Compound metabolized | Compound metabolized
3 | COc1ccc2c(c1OC)C(=O)O[C@@H]2[C@H]1c2c(cc3c(c2OC)OCO3)CCN1C [NOSCAPINE] | Compound metabolized | Compound NOT metabolized | Compound NOT metabolized | Compound metabolized | Compound NOT metabolized | Compound metabolized | Compound NOT metabolized | Compound NOT metabolized | Compound metabolized | Compound NOT metabolized | Compound NOT metabolized | Compound metabolized | Compound NOT metabolized | Compound NOT metabolized | Compound NOT metabolized | Compound NOT metabolized | Compound NOT metabolized | Compound NOT metabolized | Compound NOT metabolized | Compound metabolized
4 | CC(C)NCC(O)COc1ccc(CCOCC2CC2)cc1 (stereo not given) [BETAXOLOL] | Compound NOT metabolized | Compound NOT metabolized | Compound metabolized | Compound NOT metabolized | Compound NOT metabolized | Compound metabolized | Compound NOT metabolized | Compound NOT metabolized | Compound NOT metabolized | Compound NOT metabolized | Compound NOT metabolized | Compound NOT metabolized | Compound NOT metabolized | Compound NOT metabolized | Compound NOT metabolized | Compound NOT metabolized | Compound metabolized | Compound metabolized | Compound NOT metabolized | Compound NOT metabolized
5 | OCCOCCN1CCN(C2=Nc3ccccc3Sc3ccccc32)CC1 [QUETIAPINE] | Compound metabolized | Compound metabolized | Compound metabolized | Compound metabolized | Compound NOT metabolized | Compound metabolized | Compound NOT metabolized | Compound NOT metabolized | Compound metabolized | Compound NOT metabolized | Compound NOT metabolized | Compound NOT metabolized | Compound NOT metabolized | Compound metabolized | Compound NOT metabolized | Compound NOT metabolized | Compound metabolized | Compound metabolized | Compound NOT metabolized | Compound NOT metabolized
6 | COCCc1ccc(OCC(O)CNC(C)C)cc1.COCCc1ccc(OCC(O)CNC(C)C)cc1.O=C(O)C(O)C(O)C(=O)O (stereo not given) [METOPROLOL TARTRATE] | Compound NOT metabolized | Compound metabolized | Compound NOT metabolized | Compound NOT metabolized | Compound NOT metabolized | Compound metabolized | Compound NOT metabolized | Compound NOT metabolized | Compound NOT metabolized | Compound NOT metabolized | Compound NOT metabolized | Compound NOT metabolized | Compound NOT metabolized | Compound NOT metabolized | Compound NOT metabolized | Compound NOT metabolized | Compound metabolized | Compound NOT metabolized | Compound NOT metabolized | Compound NOT metabolized
7 | CCCc1nc2c(C)cc(-c3nc4ccccc4n3C)cc2n1Cc1ccc(-c2ccccc2C(=O)O)cc1 | Compound metabolized | Compound metabolized | Compound metabolized | Compound metabolized | Compound metabolized | Compound metabolized | Compound metabolized | Compound metabolized | Compound metabolized | Compound metabolized | Compound metabolized | Compound metabolized | Compound metabolized | Compound metabolized | Compound NOT metabolized | Compound metabolized | Compound metabolized | Compound metabolized | Compound metabolized | Compound metabolized
8 | COC1=CC(=O)C[C@@H](C)[C@]12Oc1c(Cl)c(OC)cc(OC)c1C2=O [GRISEOFULVIN] | Compound metabolized | Compound NOT metabolized | Compound metabolized | Compound metabolized | Compound NOT metabolized | Compound NOT metabolized | Compound metabolized | Compound metabolized | Compound metabolized | Compound metabolized | Compound metabolized | Compound metabolized | Compound metabolized | Compound metabolized | Compound metabolized | Compound metabolized | Compound metabolized | Compound metabolized | Compound metabolized | Compound metabolized

From ChEMBL document CHEMBL5724914, “Linking interpersonal differences in gut microbiota composition and drug biotransformation activity” (2024)
